Laboratory results published in patent US12643871B2, “Aryl formamide compound containing chiral sulfur oxide or salt thereof, preparation method, herbicidal composition and use thereof” (Qingdao Kingagroot Chemical Compound Co., Ltd., priority 2019, dated 2026).

Legend:
Experiment in all cases: Weeding effect in post-emergence stage
Type in all cases: in vivo
Conditions in all cases: 250 g/ha; 2 leaf stage; 15 days after application; fresh weight control rate
Abutilon theophrasti = system: Abutilon theophrasti
How it was run: (§1)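 Two-leaf-stage pot plants, spray-tower application at 500/250/125/60/30/15 g/ha with methyl oleate EC synergist; fresh weight control level (0–5) read at 15 days post-treatment, three replicates averaged.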

Amaranthus retroflexus = system: Amaranthus retroflexus
How it was run: as §1

Digitaria sanguinalis = system: Digitaria sanguinalis
How it was run: as §1

Echinochloa crusgali = system: Echinochloa crusgali
How it was run: as §1

Row | SMILES | weeding effect in post-emergence stage, activity level (growth control rate), Abutilon theophrasti (Abutilon theophrasti) | weeding effect in post-emergence stage, activity level (growth control rate), Amaranthus retroflexus (Amaranthus retroflexus) | weeding effect in post-emergence stage, activity level (growth control rate), Digitaria sanguinalis (Digitaria sanguinalis) | weeding effect in post-emergence stage, activity level (growth control rate), Echinochloa crusgali (Echinochloa crusgali)
1 | Cc1c(C(=O)Nc2nnnn2C)ccc(S(C)(=O)=O)c1[S@+]([O-])CC(F)(F)F [Compound 520] | 5 (Level 5: growth control rate is above 85%) | 5 (Level 5: growth control rate is above 85%) | 5 (Level 5: growth control rate is above 85%) | 5 (Level 5: growth control rate is above 85%)
2 | Cc1c(C(=O)Nc2nnnn2C)ccc(S(C)(=O)=O)c1[S@+]([O-])CCF [Compound 519] | 5 (Level 5: growth control rate is above 85%) | 5 (Level 5: growth control rate is above 85%) | 5 (Level 5: growth control rate is above 85%) | 5 (Level 5: growth control rate is above 85%)
3 | COCC[S@@+]([O-])c1c(S(C)(=O)=O)ccc(C(=O)Nc2nnnn2C)c1C [Compound 528] | 5 (Level 5: growth control rate is above 85%) | 5 (Level 5: growth control rate is above 85%) | 5 (Level 5: growth control rate is above 85%) | 5 (Level 5: growth control rate is above 85%)
4 | Cc1c(C(=O)Nc2nnnn2C)ccc(S(C)(=O)=O)c1[S@+]([O-])CCC(F)(F)F [Compound 524] | 5 (Level 5: growth control rate is above 85%) | 5 (Level 5: growth control rate is above 85%) | 5 (Level 5: growth control rate is above 85%) | 5 (Level 5: growth control rate is above 85%)
5 | CC(=O)C[S@@+]([O-])c1c(S(C)(=O)=O)ccc(C(=O)Nc2nnc(C)o2)c1C [Compound 611] | – | 5 (Level 5: growth control rate is above 85%) | 5 (Level 5: growth control rate is above 85%) | 5 (Level 5: growth control rate is above 85%)
6 | C=CCC[S@@+]([O-])c1c(S(C)(=O)=O)ccc(C(=O)Nc2nnnn2C)c1C [Compound 619] | – | 5 (Level 5: growth control rate is above 85%) | 5 (Level 5: growth control rate is above 85%) | 5 (Level 5: growth control rate is above 85%)
7 | CC[S@@+]([O-])c1c(S(C)(=O)=O)ccc(C(=O)Nc2nnnn2CCOC)c1C [Compound 622] | – | 5 (Level 5: growth control rate is above 85%) | 5 (Level 5: growth control rate is above 85%) | 5 (Level 5: growth control rate is above 85%)
8 | Cc1nnc(NC(=O)c2ccc(S(C)(=O)=O)c([S@+]([O-])CCC#N)c2C)o1 [Compound 610] | – | 5 (Level 5: growth control rate is above 85%) | 5 (Level 5: growth control rate is above 85%) | 5 (Level 5: growth control rate is above 85%)
9 | Cc1nnc(NC(=O)c2ccc(S(C)(=O)=O)c([S@+]([O-])CCS(C)(=O)=O)c2C)o1 [Compound 625] | – | 5 (Level 5: growth control rate is above 85%) | 5 (Level 5: growth control rate is above 85%) | 5 (Level 5: growth control rate is above 85%)
10 | CCC[S@@+]([O-])c1c(C(F)(F)F)ccc(C(=O)Nc2ncn[nH]2)c1F [Compound 600] | – | 5 (Level 5: growth control rate is above 85%) | 5 (Level 5: growth control rate is above 85%) | 5 (Level 5: growth control rate is above 85%)
11 | CCOCCn1nnnc1NC(=O)c1ccc(S(C)(=O)=O)c([S@+]([O-])CC)c1C [Compound 612] | – | 5 (Level 5: growth control rate is above 85%) | 5 (Level 5: growth control rate is above 85%) | 5 (Level 5: growth control rate is above 85%)
12 | Cc1nnc(NC(=O)c2ccc(S(C)(=O)=O)c([S@+]([O-])CCC(F)=C(F)F)c2C)o1 [Compound 627] | – | 5 (Level 5: growth control rate is above 85%) | 5 (Level 5: growth control rate is above 85%) | 5 (Level 5: growth control rate is above 85%)
13 | CSC(=O)C[S@@+]([O-])c1c(C(F)(F)F)ccc(C(=O)Nc2nnc(C)o2)c1F [Compound 597] | – | 5 (Level 5: growth control rate is above 85%) | 5 (Level 5: growth control rate is above 85%) | 5 (Level 5: growth control rate is above 85%)
14 | Cc1nnc(NC(=O)c2ccc(S(C)(=O)=O)c([S@+]([O-])CCC(C)(C)C)c2C)o1 [Compound 602] | – | 5 (Level 5: growth control rate is above 85%) | 5 (Level 5: growth control rate is above 85%) | 5 (Level 5: growth control rate is above 85%)
15 | Cc1nnc(NC(=O)c2ccc(Cl)c([S@@+](C)[O-])c2Cl)o1 [Compound 621] | – | 5 (Level 5: growth control rate is above 85%) | 5 (Level 5: growth control rate is above 85%) | 5 (Level 5: growth control rate is above 85%)
16 | Cc1nnc(NC(=O)c2ccc(S(C)(=O)=O)c([S@+]([O-])CCCO)c2C)o1 [Compound 628] | – | 5 (Level 5: growth control rate is above 85%) | 5 (Level 5: growth control rate is above 85%) | 5 (Level 5: growth control rate is above 85%)
17 | Cc1nnc(NC(=O)c2ccc(S(C)(=O)=O)c([S@+]([O-])CC(=O)N(C)C)c2C)o1 [Compound 604] | – | 5 (Level 5: growth control rate is above 85%) | 5 (Level 5: growth control rate is above 85%) | 5 (Level 5: growth control rate is above 85%)
18 | CSCC[S@@+]([O-])c1c(C(F)(F)F)ccc(C(=O)Nc2nnnn2C)c1SC [Compound 595] | – | 5 (Level 5: growth control rate is above 85%) | 5 (Level 5: growth control rate is above 85%) | 5 (Level 5: growth control rate is above 85%)
19 | Cc1c(C(=O)Nc2nnnn2C)ccc(S(C)(=O)=O)c1[S@+]([O-])CC(=O)N(C)C [Compound 606] | – | 5 (Level 5: growth control rate is above 85%) | 5 (Level 5: growth control rate is above 85%) | 5 (Level 5: growth control rate is above 85%)
20 | Cc1c(C(=O)Nc2nnnn2C)ccc(S(C)(=O)=O)c1[S@+]([O-])CCC#N [Compound 608] | – | 5 (Level 5: growth control rate is above 85%) | 5 (Level 5: growth control rate is above 85%) | 5 (Level 5: growth control rate is above 85%)
21 | CSCCC[S@@+]([O-])c1c(C(F)(F)F)ccc(C(=O)Nc2nnc(C)o2)c1SC [Compound 599] | – | 5 (Level 5: growth control rate is above 85%) | 5 (Level 5: growth control rate is above 85%) | 5 (Level 5: growth control rate is above 85%)
22 | Cc1c(C(=O)Nc2nnnn2C)ccc(S(C)(=O)=O)c1[S@+]([O-])CCO [Compound 607] | – | 5 (Level 5: growth control rate is above 85%) | 5 (Level 5: growth control rate is above 85%) | 5 (Level 5: growth control rate is above 85%)
